According to patent publication US4405625A, “Method of treating hyperglycemia with 1,3-dioxo-1H-benz[de]isoquinoline-2(3H)-acetic acid” (Ayerst, McKenna and Harrison Limited, priority 1979, dated 1983):

Assays:
plasma insulin [1] = experiment: Acute administration without glucose bolus in fasted rats: plasma insulin; format: in vivo, rat (male Sprague Dawley); conditions: acute i.v. administration
Method: (§1) Male Sprague Dawley rats (200-250 g, Canadian Breeding Laboratories, St. Constant, Quebec, Canada) were used in the experiment. There were 11 animals in the group. The animals were kept in a room with constant light-dark cycle and temperature. They were allowed food (Purina Lab Chow™) and water ad libitum for at least three days before being utilized. The animals were then fasted for 24 hours and anaesthetized with nembutal (50 mg/kg, intraperitoneally; Abbott Laboratories, Montreal, Quebec, Canada.) The jugular veins were exposed and a fasting blood sample was drawn by the transmusculature puncture method, Y. Kato, J. Dupre and J. C. Beck, Endocrinology, 93, 135 (1973), employing a sodium heparin (The Upjohn Company, Don Mills, Ontario, Canada) washed syringe. […]
(§2) Plasma insulin was measured by radioimmunoassay using a charcoal separation method, V. Herbert et al, J. Clin. Endocrinol., 25, 1375 (1965). […] Plasma glucose was measured by a glucose oxidase method employing a Beckman Glucose Analyser, see Beckman Company Manual, Palo Alto, Calif., U.S.A.
(§3) The results, noted below, are expressed as mean± S.E.M. The statistical significance of changes in the concentration of plasma glucose (mg/100 ml) and insulin (μU/ml), in response to alrestatin or the vehicle, from basal fasting values was determined on the differences between group means by the Student's […]. […]

plasma glucose [2] = experiment: Acute administration without glucose bolus in fasted rats: plasma glucose; format: in vivo, rat (male Sprague Dawley); conditions: acute i.v. administration
Method: as §1, §2, §3

LD50 in rats = conditions: rat, in vivo
From the text: Therefore, a good therapeutic index of safety is present.

aldose reductase = conditions: previously reported; cited from earlier work
plasma glucose [3] = experiment: Intravenous glucose tolerance test in anaesthetized fasted non-diabetic male intact rats: plasma glucose; format: in vivo, rat (male Sprague Dawley); conditions: 0.75 mmol/kg i.v., mean±S.E.M.
Method: (§4) A description of this experiment is as follows.
as §1, with “syringe. Alrestatin sodium at a dose of 0.75 mmol/kg was administered as a bolus in the jugular vein followed immediately by a bolus of D-glucose (300 mg/kg; British Drug House, Montreal, Quebec, Canada). Control animals received an injection of sodium chloride (0.75 mmol/kg) instead of the alrestatin sodium. Blood samples were drawn at 5, 10 and 15 minutes after injection of the glucose. The wounds then were closed with autoclips (Clay Adams Co., Parsippany, N. J., U.S.A.) and the animals were allowed food and water for another three day period before the experiment was repeated, i.e., on day 4.” for “syringe.”
as §2, §3

plasma insulin [4] = experiment: Intravenous glucose tolerance test in anaesthetized fasted non-diabetic male intact rats: plasma insulin; format: in vivo, rat (male Sprague Dawley); conditions: 0.75 mmol/kg i.v.
Method: as §4
as §1, with “syringe. Alrestatin sodium at a dose of 0.75 mmol/kg was administered as a bolus in the jugular vein followed immediately by a bolus of D-glucose (300 mg/kg; British Drug House, Montreal, Quebec, Canada). Control animals received an injection of sodium chloride (0.75 mmol/kg) instead of the alrestatin sodium. Blood samples were drawn at 5, 10 and 15 minutes after injection of the glucose. The wounds then were closed with autoclips (Clay Adams Co., Parsippany, N. J., U.S.A.) and the animals were allowed food and water for another three day period before the experiment was repeated, i.e., on day 4.” for “syringe.”
as §2, §3

plasma glucagon = experiment: Arginine-induced glucagon release in intact rats; format: in vivo, rat (male Sprague-Dawley)
Method: (§5) After light deithyl ether anaesthetization, the animals were injected with a bolus of saline or alrestatin (sodium salt form in 0.3 ml saline/100 g of body weight) in the external jugular vein followed immediately with a bolus of arginine-HCl (British Drug House ) at a dose of 100 mg/100 g of body weight, cf. […] Vehicle control animals received a second injection of saline. Five minutes later trunk blood was collected by decapitation into chilled tubes containing sodium heparin (Upjohn) and aprotinin(Trasylol™, Boehringer-Ingelheim Dorval, Quebec, Canada) (20 U and 1000 KIU per ml whole blood, respectively). Plasma was collected after centrifugation, stored at -20° C. and assayed for immunoreactive glucagon and insulin levels within 2 weeks.
(§6) Rat insulin purchased from Novo A/S, Copenhagen, Denmark, was used as unlabelled standard. […] Glucagon antiserum (Antiserum 30K, purchased from Dr. R. H. Unger, Houston, Tex., U.S.A.) was employed in the assay. […] Metab. […] Metab. […] Antibody bound hormone was separated from free hormone by conventional charcoal-dextran methods.

plasma insulin [5] = experiment: Arginine-induced insulin release in intact rats; format: in vivo, rat (male Sprague-Dawley)
Method: as §5, §6

blood glucose = experiment: Clinical tests in diabetic patients: blood glucose levels; format: in vivo, human (diabetic patients)
From the text: All patients were on a controlled diet. Patient A also was receiving the oral antidiabetic agent, glyburide (Daonil™) and patient C also was receiving the diuretic chlorthalidone (Hygroton™).

[6] = 200 mg/kg i.v. immediately before arginine 100 mg/100 g
[7] = 35-200 mg/kg i.v. immediately before arginine 100 mg/100 g
[8] = arginine 100 mg/100 g i.v., 5 min

O=C(O)CN1C(=O)c2cccc3cccc(c23)C1=O [alrestatin, 1,3-dioxo-1H-benz[de]isoquinoline-2(3H)-acetic acid]
change in basal fasting plasma insulin levels vs vehicle (plasma insulin [1]): did not significantly alter | change in plasma glucose levels vs vehicle (plasma glucose [2]): did not significantly alter | LD50 (LD50 in rats; iv, intravenously): 1220 ± 45 mg/kg | LD50 (LD50 in rats; po, perorally): > 2500 mg/kg | inhibition of the enzyme aldose reductase (aldose reductase): inhibitor of the enzyme aldose reductase

O=C(O)CN1C(=O)c2cccc3cccc(c23)C1=O [alrestatin sodium]
mean incremental change of plasma glucose (plasma glucose [3]; 5 min after i.v. glucose (300 mg/kg), vehicle 96±4.7, NS): 83.3±5.4 mg % | mean incremental change of plasma glucose (plasma glucose [3]; 10 min after i.v. glucose (300 mg/kg), vehicle 82.8±7.5, p<0.05): 58.8±8.5 mg % | mean incremental change of plasma glucose (plasma glucose [3]; 15 min after i.v. glucose (300 mg/kg), vehicle 78.4±10.7, p<0.05): 45.4±9.6 mg % | mean incremental change of plasma insulin (plasma insulin [4]; 5 min after i.v. glucose (300 mg/kg), mean±S.E.M., vehicle 32.9±5.2, p<0.02): 76.9±16.7 μU/ml | plasma insulin levels vs vehicle (plasma insulin [4]; 10 min after i.v. glucose (300 mg/kg)): significantly greater | plasma insulin levels vs vehicle (plasma insulin [4]; 15 min after i.v. glucose (300 mg/kg)): greater at 15 minutes in the alrestatin treated group although the difference was not significant | effect on arginine-stimulated glucagon increase (plasma glucagon; [6]): completely prevented the increase caused by arginine | effect on arginine-stimulated glucagon concentrations (plasma glucagon; [7]): decreased the glucagon concentrations | increase of arginine-induced insulin release (plasma insulin [5]; [6]): about 2.5 fold | effect on arginine-induced insulin release (plasma insulin [5]; [7]): increased the insulin release observed with arginine | lowering of blood sugar levels (blood glucose; 50 mg/kg/day i.v. for five days, diabetic patients): effective in lowering blood sugar levels | blood glucose, fasting (blood glucose; Patient A (also on glyburide), day 1, 50 mg/kg/day i.v., pretreatment 162): 132 mg % | blood glucose, 2hr postprandial (blood glucose; Patient A (also on glyburide), day 1, 50 mg/kg/day i.v., pretreatment 276): 185 mg % | blood glucose, fasting (blood glucose; Patient A (also on glyburide), day 2, 50 mg/kg/day i.v., pretreatment 162): 130 mg % | blood glucose, 2hr postprandial (blood glucose; Patient A (also on glyburide), day 2, 50 mg/kg/day i.v., pretreatment 276): 215 mg % | blood glucose, fasting (blood glucose; Patient A (also on glyburide), day 3, 50 mg/kg/day i.v., pretreatment 162): 97 mg % | blood glucose, 2hr postprandial (blood glucose; Patient A (also on glyburide), day 3, 50 mg/kg/day i.v., pretreatment 276): 155 mg % | blood glucose, fasting (blood glucose; Patient A (also on glyburide), day 4, 50 mg/kg/day i.v., pretreatment 162): 90 mg % | blood glucose, 2hr postprandial (blood glucose; Patient A (also on glyburide), day 4, 50 mg/kg/day i.v., pretreatment 276): 117 mg % | blood glucose, fasting (blood glucose; Patient A (also on glyburide), day 5, 50 mg/kg/day i.v., pretreatment 162): 132 mg % | blood glucose, 2hr postprandial (blood glucose; Patient A (also on glyburide), day 5, 50 mg/kg/day i.v., pretreatment 276): 230 mg % | blood glucose, fasting (blood glucose; Patient A (also on glyburide), follow-up after 5 days i.v. treatment, pretreatment 162): 111 mg % | blood glucose, 2hr postprandial (blood glucose; Patient A (also on glyburide), follow-up after 5 days i.v. treatment, pretreatment 276): 207 mg % | blood glucose, fasting (blood glucose; Patient B, day 1, 50 mg/kg/day i.v., pretreatment 90): 92 mg % | blood glucose, 2hr postprandial (blood glucose; Patient B, day 1, 50 mg/kg/day i.v., pretreatment 119): 72 mg % | blood glucose, fasting (blood glucose; Patient B, day 2, 50 mg/kg/day i.v., pretreatment 90): 89 mg % | blood glucose, 2hr postprandial (blood glucose; Patient B, day 2, 50 mg/kg/day i.v., pretreatment 119): 86 mg % | blood glucose, fasting (blood glucose; Patient B, day 3, 50 mg/kg/day i.v., pretreatment 90): 86 mg % | blood glucose, 2hr postprandial (blood glucose; Patient B, day 3, 50 mg/kg/day i.v., pretreatment 119): 94 mg % | blood glucose, fasting (blood glucose; Patient B, day 4, 50 mg/kg/day i.v., pretreatment 90): 50 mg % | blood glucose, 2hr postprandial (blood glucose; Patient B, day 4, 50 mg/kg/day i.v., pretreatment 119): 60 mg % | blood glucose, fasting (blood glucose; Patient B, day 5, 50 mg/kg/day i.v., pretreatment 90): 50 mg % | blood glucose, 2hr postprandial (blood glucose; Patient B, day 5, 50 mg/kg/day i.v., pretreatment 119): 43 mg % | blood glucose, fasting (blood glucose; Patient B, follow-up after 5 days i.v. treatment, pretreatment 90): 81 mg % | blood glucose, 2hr postprandial (blood glucose; Patient B, follow-up after 5 days i.v. treatment, pretreatment 119): 87 mg % | blood glucose, fasting (blood glucose; Patient C (also on chlorthalidone), day 1, 50 mg/kg/day i.v., pretreatment 95): 133 mg % | blood glucose, 2hr postprandial (blood glucose; Patient C (also on chlorthalidone), day 1, 50 mg/kg/day i.v., pretreatment 190): 128 mg % | blood glucose, fasting (blood glucose; Patient C (also on chlorthalidone), day 2, 50 mg/kg/day i.v., pretreatment 95): 111 mg % | blood glucose, 2hr postprandial (blood glucose; Patient C (also on chlorthalidone), day 2, 50 mg/kg/day i.v., pretreatment 190): 145 mg % | blood glucose, fasting (blood glucose; Patient C (also on chlorthalidone), day 3, 50 mg/kg/day i.v., pretreatment 95): 104 mg % | blood glucose, 2hr postprandial (blood glucose; Patient C (also on chlorthalidone), day 3, 50 mg/kg/day i.v., pretreatment 190): 141 mg % | blood glucose, fasting (blood glucose; Patient C (also on chlorthalidone), day 4, 50 mg/kg/day i.v., pretreatment 95): 50 mg % | blood glucose, 2hr postprandial (blood glucose; Patient C (also on chlorthalidone), day 4, 50 mg/kg/day i.v., pretreatment 190): 90 mg % | blood glucose, fasting (blood glucose; Patient C (also on chlorthalidone), day 5, 50 mg/kg/day i.v., pretreatment 95): 77 mg % | blood glucose, 2hr postprandial (blood glucose; Patient C (also on chlorthalidone), day 5, 50 mg/kg/day i.v., pretreatment 190): 106 mg % | blood glucose, fasting (blood glucose; Patient C (also on chlorthalidone), follow-up after 5 days i.v. treatment, pretreatment 95): 119 mg % | blood glucose, 2hr postprandial (blood glucose; Patient C (also on chlorthalidone), follow-up after 5 days i.v. treatment, pretreatment 190): 149 mg %

N=C(N)NCCC[C@H](N)C(=O)O [arginine, reference compound]
stimulated glucagon release, mean above plasma hormone concentration in vehicle treated animals (plasma glucagon; [8]): about 100 pg/ml | plasma glucagon concentration (plasma glucagon; arginine 100 mg/100 g i.v., 5 min, vehicles 180.6±5.8 pg/ml): 284.8 ± 13.7 pg/mL | increase of plasma insulin concentration (plasma insulin [5]; [8]): about 100 μU/ml
